Data on 9 compounds can be found in US11241437B2, “Heterocyclic compounds, preparation methods and uses thereof” (InventisBio Co., Ltd., priority 2019, dated 2022).

≈ marks a conversion by molar mass, not a printed value. A value given as a limit tells only on which side of the number the result lay.

Assay type in all cases: physicochemical
The nature of data set [1]: Solubility of Form A and Form B of Compound 2 in bio-relevant media. The settings on record: for solubility at 0.5 h / solubility at 2 h / solubility at 24 h: 37 °C, thermodynamic from solid; for Solubility: 37° C.; for XRPD patterns of remaining solids: FaSSIF and water, at 24 hours.
Description: Solubility in Bio-relevant Media: Form A and Form B was added into SGF, FeSSIF, FaSSIF and water, respectively. The suspensions were kept shaking at 37° C. with 200 rpm for 24 hours. At 0.5 h, 2 h and 24 h, suspensions were filtered and drug concentrations of filtrates were analyzed by HPLC. pH of filtrates was measured at each time point. The remaining solids at 24 hours were characterized by XRPD.
Data set [2] can be described thus: Solid state stability of Form B of Compound 2. How it is done: Method 2. HPLC analysis was performed with an Agilent HPLC 1260 series instrument. A representative HPLC method used for purity, solubility and stability study for Compound 2 analysis.
Solid State Stability of Form B: About 10 mg of Form B was open placed at 40° C./75% RH and 60° C. for 7 days and at 25° C./92.5% RH for 10 days, respectively. Prepare samples in duplicate (n=2) per condition. The solids were analyzed by XRPD and HPLC (only for 40° C./75% RH and 60° C.).

A short description of data set [3]: Dynamic moisture sorption analysis (DVS) of Form B of Compound 2. The protocol:
Method 2. Used for studies with solid state of Compound 2. Moisture sorption/desorption data was collected on IGAsorp Dynamic Moisture Sorption Analyzer. The sample was placed into a tarred sample chamber and automatically weighed. The sample was dried at 50° C. until the humidity was less than 0.3% and cooled to 25° C. The instrument parameters were set as given below.

A short description of data set [4]: Manual grinding of Form A and Form B of Compound 2. Particulars: ground manually for 5 min. How it is done: About 10-20 mg of Compound 2 in Form A and Form B were ground manually for 5 min, respectively.
A short description of data set [5]: Solubility of amorphous Compound 1 in solvents (anti-solvent precipitation screening). The settings on record: RT.
The nature of data set [6]: Solubility of Compound 1 solid forms in bio-relevant media and water. The settings on record: FaSSIF. The protocol:
Solubility Studies: Solubility of Form IV was tested in three bio-relevant media (Simulated Gastric Fluid (SGF), Fasted State Simulated Intestinal Fluid (FaSSIF), and Fed State Simulated Intestinal Fluid (FeSSIF)) and water. […] Form IV (˜10 mg) was weighed into 2 mL of four media to make suspensions respectively, and about 10 mg of the amorphous starting material was also added into 2 mL of FaSSIF. Then all suspensions were shaken at 37° C. with 200 rpm for up to 24 hours. At 0.5, 2 and 24 hours, about 0.7 mL of each suspension was filtered. The filtrate was analyzed by HPLC and pH meter, and the residual solids were also checked by XRPD at 24 hours.

Data set [7] can be described thus: Polymorph characterization summary of Compound 1 forms (form stability).
Excerpt: In the polymorph screening, five XRPD Patterns (FIG. 11) were generated, and four forms were identified including 2 anhydrates and 2 hydrates.
The nature of data set [8]: Solubility of Form A of Compound 2 in organic solvents. The settings on record: for Solubility: organic solvent or mixture.
Data set [9] can be described thus: Competitive slurry (interconversion) of Form A, Form B and Form C of Compound 2. Particulars: RT or 50° C. How it is done:
Interconversion Studies: Competitive slurry of Form A, Form B and Form C was performed in acetone and acetone/water (1/4) at RT or 50° C., with details shown below.

The nature of the next data set: pKa of Compounds 1 and 2.
Data set [10] can be described thus: Interconversion studies of solid forms of Compound 1 (slurry). How it is done: Interconversion Studies: Equal amounts (˜7 mg) of Form I, II and III were mixed together and then suspended in 0.5 mL of different solvents at room temperature or 50° C., respectively. Residual solids were collected by filtration and characterized at appropriate time. Additionally, Form IV (˜12 mg) was slurried in 0.5 ml, water or MeOH/water (1/4) at RT or 50° C. for 3 days. Residual solids were collected by filtration and analyzed by XRPD.

Regarding `C=CC(=O)N1C[C@H](C)N(c2nc(=O)n(-c3c(C4CC4)ncnc3C3CC3)c3nc(-c4c(N)cccc4F)c(F)cc23)C[C@H]1C` (single isomer, unassigned) [Form B], the solubility at 0.5 h was 16 µg/mL (≈ 26.7 µM) in data set [1] (FaSSIF, pH 6.5, fassif, FaSSIF (pH 6.5), 0.5 h); 44 µg/mL (≈ 73.5 µM) in data set [1] (FeSSIF, pH 5, fessif, FeSSiF (pH 5.0), 0.5 h); 60 µg/mL (≈ 100 µM) in data set [1] (SGF, pH 1.2, simulated gastric fluid, SGF (pH 1.2), 0.5 h); 21 µg/mL (≈ 35.1 µM) in [1] (water, 0.5 h). The solubility at 2 h was 51 µg/mL (≈ 85.2 µM) in data set [1] (FaSSIF, pH 6.5, fassif, FaSSIF (pH 6.5), 2 h); 43 µg/mL (≈ 71.8 µM) in data set [1] (FeSSIF, pH 5, fessif, FeSSiF (pH 5.0), 2 h); 58 µg/mL (≈ 96.9 µM) in data set [1] (SGF, pH 1.2, simulated gastric fluid, SGF (pH 1.2), 2 h); 20 µg/mL (≈ 33.4 µM) in data set [1] (water, 2 h). For the same compound, the solubility at 24 h in data set [1] (FaSSIF, pH 6.5, fassif, FaSSIF (pH 6.5), 24 h) was determined as 18 µg/mL (≈ 30.1 µM); in data set [1] (FeSSIF, pH 5, fessif, FeSSiF (pH 5.0), 24 h) it was 37 µg/mL (≈ 61.8 µM). In addition, the Solubility turned out to be 56 µg/mL (≈ 93.5 µM) in [1] (SGF (pH 1.2), 24 h) and 19 µg/mL (≈ 31.7 µM) in [1] (Water, 24 h). Also, in data set [1] (SGF, FeSSIF), the “XRPD patterns of remaining solids” value is “unchanged”. Also, the XRPD entry in data set [2] (25° C./92.5% RH, After 10 d) was “Unchanged”; in data set [2] (40° C./75% RH, After 7 d), “Unchanged”; in data set [2] (60° C., After 7 d), “Unchanged”. Also, the Purity-7 d was determined as 98.97 Area % in data set [2] (40° C./75% RH) and 98.82 Area % in data set [2] (60° C.). The same compound returned a Purity decrease in data set [2] (60° C. for 7 days) of 0.16%. Besides, the “Initial Purity” value in data set [2] (initial, before storage) is reported as 98.98 Area %. Besides, in data set [3], the “Crystal form after DVS testing” value is given as “without changing of crystal form”. Besides, the “Hygroscopicity (DVS)” value in [3] (25° C.) is on record as “slightly hygroscopic”. For the same compound, the “Water absorbed (DVS)” value in data set [3] (at 0-80% RH, 25° C.) is on record as around 0.84%. In addition, the “Crystal form after grinding” value in data set [4] is reported as “crystallinity of Form B became weak”.
For the compound `C=CC(=O)N1C[C@H](C)N(c2nc(=O)n(-c3c(C4CC4)ncnc3C3CC3)c3nc(-c4c(N)cccc4F)c(Cl)cc23)C[C@H]1C` [Amorphous material], in data set [5], the “Solubility in MTBE, water and heptane” value is listed as “low solubility”; the “Solubility in most solvents” value was “high solubility”. In [6] (37° C., 0.5 h), this compound had a Solubility of 302 µg/mL (≈ 491 µM). In [6] (37° C., 2 h), the Solubility came out at 263 µg/mL (≈ 428 µM). Moreover, in [6] (37° C., 24 h), the Solubility is 283 µg/mL (≈ 460 µM) and the “XRPD-24 h of residual solids” value was “unchanged”. Besides, the “Solubility in FaSSIF” value in data set [6] (time point not stated, listed as amorphous starting material) was 300 µg/mL (≈ 488 µM).
Take `C=CC(=O)N1C[C@H](C)N(c2nc(=O)n(-c3c(C4CC4)ncnc3C3CC3)c3nc(-c4c(N)cccc4F)c(Cl)cc23)C[C@H]1C` [Form III]: the “Stability of the solid form” value in data set [7] is “not stable”.
Regarding `C=CC(=O)N1C[C@H](C)N(c2nc(=O)n(-c3c(C4CC4)ncnc3C3CC3)c3nc(-c4c(N)cccc4F)c(F)cc23)C[C@H]1C` (single isomer, unassigned) [Form A], the Solubility in data set [1] (FaSSIF (pH 6.5), 0.5 h) was 19 µg/mL (≈ 31.7 µM); in data set [1] (FaSSIF (pH 6.5), 2 h), 29 µg/mL (≈ 48.4 µM); in data set [1] (FaSSIF (pH 6.5), 24 h) it was 24 µg/mL (≈ 40.1 µM); in data set [1] (FeSSiF (pH 5.0), 0.5 h), 41 µg/mL (≈ 68.5 µM); in data set [1] (FeSSiF (pH 5.0), 2 h), 45 µg/mL (≈ 75.2 µM); in data set [1] (FeSSiF (pH 5.0), 24 h), 42 µg/mL (≈ 70.2 µM). Further, the Solubility in [1] (SGF (pH 1.2), 0.5 h) worked out at 67 µg/mL (≈ 112 µM); in data set [1] (SGF (pH 1.2), 2 h) it was 72 µg/mL (≈ 120 µM); in data set [1] (SGF (pH 1.2), 24 h) it was 170 µg/mL (≈ 284 µM); in data set [1] (Water, 0.5 h), 15 µg/mL (≈ 25.1 µM); in [1] (Water, 2 h), 25 µg/mL (≈ 41.8 µM); in [1] (Water, 24 h), 43 µg/mL (≈ 71.8 µM). Besides, the Solubility in data set [8] (DCM, read-out: Solubility in DCM) was above 92000 µg/mL; in data set [8] (MeOH, butanone, THF, ACN, acetone, read-out: Solubility in MeOH, butanone, THF, ACN and acetone) it was 20000 to 33000 µg/mL (≈ 33400 to 55100 µM). The “XRPD patterns of remaining solids” value in data set [1] (SGF, FeSSIF) is listed as “unchanged”. The “Solubility in other solvents” value in data set [8] was “practically insoluble”. Moreover, in [4], the “Crystal form after grinding” value was “unchanged”.
With `C=CC(=O)N1C[C@H](C)N(c2nc(=O)n(-c3c(C4CC4)ncnc3C3CC3)c3nc(-c4c(N)cccc4F)c(F)cc23)C[C@H]1C` [Form A, Form B and Form C], the “Form after competitive slurry” value was “completely converted to Form B” in [9] (non-aqueous solvent (acetone), after 1 day) and “showed tendency to convert to Form B” in data set [9] (solvent-aqueous solution (acetone/water 1/4), after 7 days).
`C=CC(=O)N1C[C@H](C)N(c2nc(=O)n(-c3c(C4CC4)ncnc3C3CC3)c3nc(-c4c(N)cccc4F)c(Cl)cc23)C[C@H]1C` [Compound 1]: the pKa in the data set “pKa of Compounds 1 and 2” is around 3.
Take `C=CC(=O)N1C[C@H](C)N(c2nc(=O)n(-c3c(C4CC4)ncnc3C3CC3)c3nc(-c4c(N)cccc4F)c(Cl)cc23)C[C@H]1C` [Form II]: in [7], the “Stability of the solid form” value is “not stable”.
As to `C=CC(=O)N1C[C@H](C)N(c2nc(=O)n(-c3c(C4CC4)ncnc3C3CC3)c3nc(-c4c(N)cccc4F)c(Cl)cc23)C[C@H]1C` [Form I, II and III], the “XRPD of wet cake” value in data set [10] (EA/MTBE (1/4), 50° C., 3 days) is on record as “Form IV”; in data set [10] (EA/MTBE (1/4), RT, 3 days), “Form IV”; in data set [10] (IPA, 50° C., 4 days), “Form IV”; in [10] (IPA, RT, 3 days), “Pattern 1”; in [10] (MeOH/Water (1/4), 50° C., 3 days), “Form IV”; in [10] (MeOH/Water (1/4), RT, 3 days), “Form II”.
Turning to `C=CC(=O)N1C[C@H](C)N(c2nc(=O)n(-c3c(C4CC4)ncnc3C3CC3)c3nc(-c4c(N)cccc4F)c(F)cc23)C[C@H]1C` [Compound 2], the pKa in “pKa of Compounds 1 and 2” is around 3.
